Experimental data from ChEMBL document CHEMBL1255203 (Bioorg Med Chem Lett, 2010).

How the values were obtained:
Assay type in all cases: ADME
Cytochrome P450 1A2 = biological target: T1, Cytochrome P450 1A2 (Homo sapiens, UniProt P05177); experiment: Inhibition of human CYP1A2
T1 sequence (P05177 whole entry): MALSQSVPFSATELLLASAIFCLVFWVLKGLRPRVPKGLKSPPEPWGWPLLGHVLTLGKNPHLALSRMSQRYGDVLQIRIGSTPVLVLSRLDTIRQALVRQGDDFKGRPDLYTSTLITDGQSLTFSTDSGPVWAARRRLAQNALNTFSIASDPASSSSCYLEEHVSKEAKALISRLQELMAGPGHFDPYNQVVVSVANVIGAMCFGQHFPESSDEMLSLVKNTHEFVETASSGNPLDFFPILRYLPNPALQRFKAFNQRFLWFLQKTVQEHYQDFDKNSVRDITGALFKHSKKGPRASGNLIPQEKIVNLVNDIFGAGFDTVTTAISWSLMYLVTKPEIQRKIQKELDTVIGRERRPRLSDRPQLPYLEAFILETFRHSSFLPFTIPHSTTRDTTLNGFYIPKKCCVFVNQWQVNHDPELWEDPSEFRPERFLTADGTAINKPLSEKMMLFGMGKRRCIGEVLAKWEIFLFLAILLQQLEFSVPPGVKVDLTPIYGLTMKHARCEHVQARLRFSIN

Cytochrome P450 2D6 = Cytochrome P450 2D6 (Homo sapiens, UniProt P10635); experiment: Inhibition of human CYP2D6
Cytochrome P450 2C9 = Cytochrome P450 2C9 (Homo sapiens, UniProt P11712); experiment: Inhibition of human CYP2C9
Cytochrome P450 3A4 = Cytochrome P450 3A4 (Homo sapiens, UniProt P08684); experiment: Inhibition of human CYP3A4
Cytochrome P450 3A4, sequence (P08684 whole entry): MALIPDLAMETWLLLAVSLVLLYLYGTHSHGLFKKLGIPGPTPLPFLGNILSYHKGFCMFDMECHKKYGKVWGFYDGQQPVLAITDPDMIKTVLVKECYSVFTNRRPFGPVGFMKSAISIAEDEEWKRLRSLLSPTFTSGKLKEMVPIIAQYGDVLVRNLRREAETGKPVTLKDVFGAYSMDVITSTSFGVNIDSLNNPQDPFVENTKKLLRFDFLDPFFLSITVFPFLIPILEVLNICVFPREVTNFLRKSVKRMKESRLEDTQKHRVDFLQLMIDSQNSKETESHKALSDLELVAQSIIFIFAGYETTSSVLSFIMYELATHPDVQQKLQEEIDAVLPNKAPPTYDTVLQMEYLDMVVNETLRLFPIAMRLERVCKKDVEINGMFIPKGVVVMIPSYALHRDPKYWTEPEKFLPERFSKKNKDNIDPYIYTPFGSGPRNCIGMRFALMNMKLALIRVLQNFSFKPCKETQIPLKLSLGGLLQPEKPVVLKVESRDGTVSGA

Cytochrome P450 2D6, sequence (P10635 whole entry): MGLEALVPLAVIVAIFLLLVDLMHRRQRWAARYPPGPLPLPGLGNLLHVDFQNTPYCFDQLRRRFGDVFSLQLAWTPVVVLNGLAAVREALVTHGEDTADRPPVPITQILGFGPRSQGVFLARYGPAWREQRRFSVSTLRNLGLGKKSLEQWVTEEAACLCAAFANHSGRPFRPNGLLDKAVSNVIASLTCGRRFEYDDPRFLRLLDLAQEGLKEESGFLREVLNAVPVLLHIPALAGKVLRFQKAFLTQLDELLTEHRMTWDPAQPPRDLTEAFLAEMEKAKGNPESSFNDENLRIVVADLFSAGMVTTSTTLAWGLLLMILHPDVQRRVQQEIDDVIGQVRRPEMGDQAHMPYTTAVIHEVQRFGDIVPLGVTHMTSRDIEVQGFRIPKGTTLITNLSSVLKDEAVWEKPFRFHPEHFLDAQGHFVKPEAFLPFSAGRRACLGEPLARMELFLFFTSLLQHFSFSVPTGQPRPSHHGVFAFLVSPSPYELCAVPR
Cytochrome P450 2C9, sequence (P11712 whole entry): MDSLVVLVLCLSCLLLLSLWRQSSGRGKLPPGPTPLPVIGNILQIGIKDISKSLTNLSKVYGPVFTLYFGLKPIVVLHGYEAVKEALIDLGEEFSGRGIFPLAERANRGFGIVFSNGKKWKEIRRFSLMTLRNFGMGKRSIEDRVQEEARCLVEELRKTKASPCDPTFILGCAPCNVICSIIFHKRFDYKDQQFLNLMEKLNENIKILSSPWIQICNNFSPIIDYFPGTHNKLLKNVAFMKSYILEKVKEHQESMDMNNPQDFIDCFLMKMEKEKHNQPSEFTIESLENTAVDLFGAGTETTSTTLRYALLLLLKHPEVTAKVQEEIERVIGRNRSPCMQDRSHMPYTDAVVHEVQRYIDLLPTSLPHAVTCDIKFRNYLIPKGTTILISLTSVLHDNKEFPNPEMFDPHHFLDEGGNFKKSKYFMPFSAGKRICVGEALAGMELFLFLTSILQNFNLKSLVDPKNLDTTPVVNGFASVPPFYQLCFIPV

| IC50 (Cytochrome P450 1A2) [µM] | IC50 (Cytochrome P450 2D6) [µM] | IC50 (Cytochrome P450 2C9) [µM] | IC50 (Cytochrome P450 3A4) [µM] | SMILES |
| --- | --- | --- | --- | --- |
| 0.24 | – | – | – | O=c1cc(-c2ccccc2)oc2cc(O)ccc12 [7-HYDROXYFLAVONE] |
| – | > 50 | 5.23 | > 50 | O=c1cc(-c2ccccc2)oc2cc(O)cc(O)c12 [CHRYSIN] |
